From PMC8700061, “Fragment-Sized and Bidentate (Immuno)Proteasome Inhibitors Derived from Cysteine and Threonine Targeting Warheads” (Cells, 2021) come the findings set out here.

Data set [1] concerns the target T1, β5 subunit of human cCP (Homo sapiens, UniProt P20618+P28074).
T1 construct: purchased Boston Biochem, Inc., Cambridge, MA, USA
In words: Inhibition of β5 activity (RA, IC50), Suc-LLVY-AMC. The data set is classed as biochemical. The settings on record: 30 min pre-incubation, SDS.

Data set [2] addresses T2, β1i subunit of human iCP (Homo sapiens, UniProt P28065+P40306).
T2 construct: purchased Boston Biochem, Inc., Cambridge, MA, USA
As to the kind of experiment: Inhibition of β1i activity (RA, IC50), Ac-PAL-AMC. The format is biochemical. The settings on record: PA28α, 30 min pre-incubation. In short, it runs like this: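 Purified human iCP or cCP (0.2 nM final) preincubated with compound 30 min at 37 °C in 50 mM Tris-HCl, 0.5 mM EDTA, pH 7.4 with 0.01% SDS (β5/β5i) or PA28α instead (β1/β1i); residual activity at 10 μM, IC50 from ≥8 concentrations. AMC substrates (stock 100 μM) followed at 360/460 nm for 90 min; initial velocities used, IC50 means of ≥3 runs.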

Data set [3] concerns the target T3, β2 subunit of human cCP (Homo sapiens, UniProt P49720+Q99436).
T3 construct: purchased Boston Biochem, Inc., Cambridge, MA, USA
As to the kind of experiment: Residual β2 activity, Boc-LRR-AMC. The format is biochemical. The settings on record: 10 µM, PA28α, Table 6.

Data set [4] in a line: UV-Vis-based stability assay in buffer. The data set is classed as physicochemical. The settings on record: after 1 h, assay buffer pH 7.4, 37 °C, 50 µM. The method in brief: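 Compounds at 50 μM (5% DMSO) in 50 mM Tris-HCl, 0.5 mM EDTA, pH 7.4, held at 37 °C, with UV-Vis spectra (244–400 nm) read up to 240 min and DMSO blank subtracted. Relative absorbance change from 0 to 60 min at the most responsive wavelength: <0.1 stable, 0.1–0.2 intermediate, >0.2 unstable.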

For data set [5], the target named is T4, hMAO-B (Homo sapiens, UniProt P27338).
T4 construct: purchased Sigma Aldrich; host or cells: BTI-TN-5B1-4 insect cells
T4 sequence (P27338 1-520): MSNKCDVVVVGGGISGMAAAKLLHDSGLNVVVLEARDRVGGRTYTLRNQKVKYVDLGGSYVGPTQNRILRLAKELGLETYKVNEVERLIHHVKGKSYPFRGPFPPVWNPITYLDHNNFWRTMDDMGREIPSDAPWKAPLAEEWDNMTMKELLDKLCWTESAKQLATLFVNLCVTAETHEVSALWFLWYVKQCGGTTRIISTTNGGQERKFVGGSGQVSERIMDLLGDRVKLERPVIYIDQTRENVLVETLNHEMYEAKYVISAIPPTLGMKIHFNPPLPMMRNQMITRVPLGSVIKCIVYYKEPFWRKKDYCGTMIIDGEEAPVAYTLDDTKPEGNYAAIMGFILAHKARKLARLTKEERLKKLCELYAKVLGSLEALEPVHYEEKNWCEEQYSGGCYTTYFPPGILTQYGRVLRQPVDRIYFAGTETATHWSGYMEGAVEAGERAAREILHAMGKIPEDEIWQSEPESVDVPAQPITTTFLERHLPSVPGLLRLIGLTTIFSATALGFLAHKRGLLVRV
In words: Monoamine oxidase assay, hMAO-B. The data set is classed as biochemical. The settings on record: 30 min pre-incubation, read-out: Residual activity [%] ± SD, hMAO-B. How it is done: The effects of the test compounds on hMAO were investigated using fluorimetric assay. Recombinant hMAO-A and hMAO-B, expressed in BTI-TN-5B1-4 insect cells, horseradish peroxidase type II and p-tyramine hydrochloride were purchased from Sigma Aldrich. Amplex Red was synthesized as previously described.
Briefly, 50 mM sodium phosphate buffer (pH = 7.4, 0.05 vol.% Triton X-114) containing the compounds or the reference inhibitors and hMAO were incubated at 37 °C for 30 min. The reaction was started by adding Amplex Red (final concentration, 250 µM), horseradish peroxidase (final activity, 1 U/mL), and p-tyramine (final concentration, 1 mM). The increase in fluorescence (λex = 530 nm, λem = 590 nm) was monitored for 30 min at 37 °C. DMSO at a concentration of 1.5% (v/v) was used for the control experiments. For the determination of blank (b), the enzyme was replaced by phosphate-buffered solution. Each measurement was performed in duplicate. Inhibitory potencies were expressed as residual activities (RA), as described under the Cholinesterase assay section.

Broadly, the IC50 is the concentration that gives 50% inhibition.

Regarding `CC(C)C[C@H](NC(=O)CCCn1c(C#N)nc2ccccc21)B1O[C@@H]2C[C@@H]3C[C@@H](C3(C)C)[C@]2(C)O1` [Compound 31], the IC50 is 13 ± 4 µM in data set [1] and 6 ± 3.2 µM in data set [2]. For the same compound, the “β2 (RA [%])” value in data set [3] is recorded as “NA (NA, Not active (RA above 95%))”. The “Stability in Buffer (UV-Vis-based assay)” value in data set [4] is given as “stable ^b,c (relative absorbance difference for the compound in the buffer was below 0.1)”. In addition, the remaining activity at 100 µM in data set [5] was greater than 50%.
